The values that follow come from patent publication US5329012A, “Bis(acyloxmethyl)imidazole compounds” (The Research Foundation of State University of New York, priority 1987, dated 1994).

Data set [1] concerns lymphocytic leukemia P-388. In words: P-388 lymphocytic leukemia test in mice (NCI Protocol 1.200). In kind it is in vivo, CDF1 female mice. Conditions: for BWD (body weight difference vs control) / KE (log tumor cell population end vs before treatment) / Tox.Day Surv. (survivors/animals tested): daily for 5 days; for Tox.Day Surv. (survivors/animals tested): day 5. The protocol:
Various bis(acyloxymethyl)imidazole derivatives prepared in accord with Examples I-XVIII and designated Samples A-J, were tested for anti-tumor activity in vivo using the lymphocytic leukemia P-388 test procedure in mice with Samples A and B representing controls. The test system was that employed by the National Cancer Institute (NCI) for the preliminary screening of anti-tumor agents, according to Protocol 1.200 (Cancer Chemo. Reports Part 3, Vol. 3, No. 2, page 9; 1972). In the study ascitic fluid containing 6×10^6 cells was implanted in the peritoneal cavity of CDF1 female mice. Each imidazole was given in a single injection, at four to six different dose levels (5-6 mice/dose level) daily for five (5) days beginning 24 hours after tumor innoculation. The control animals received saline. Test criteria was in accord with NCI protocol as follows: toxicity day evaluations were carried out on day 5 (number of survivors/number of animals tested); % T/C data was calculated through mean survival time [% T/C=(MST treated/MST control)x100, where MST=mean survival time]; BWD refers to the body weight difference (grams) of test animals compared to control animals; KE refers to the log of the tumor cell population at the end of treatment relative to tumor cell population before treatment.
Table I sets out the identification of the compounds corresponding to the samples used in this and further Examples. Table II sets out the results of the P-388 tests.

Data set [2] relates to MX-1 (mammary) human tumor xenograft. The experiment in a line: MX-1 human mammary tumor xenograft (subrenal capsule), tumor weight evaluation. Type of data set: in vivo, human tumor in female athymic (nude) mice. Particulars: single dose. The protocol: (§1) Tumor cells were inoculated ip(intraperitonal) into female, athymic, mice, being either MX-1 (mammary) or LOX (amelanotic melanoma) human tumor xenograph models. The human xenograft tumors were formed by heterotransplantation of surgically removed human tumors into the subrenal capsule of the nude mice. […] The hydrochloride salts of the compounds, designated H, K, and L, and the free base of H, as identified on Table I were administered to the viable human xenograft tumors by a single dose subcutaneous renal cavity (MX-1) injection or interperitonal (LOX) injection to the nude mice test animal in a suspension of 0.9% aqueous sodium chloride solution with "tween-80" and distilled water. The tested compounds were tested against a known cancer tumor inhibiting compound (control) 2,3-dihydro-5-(3'-4'-dichloropheny1)-6,7-bis(n-propylcarbanoxymethylcarbonate)-1H-pyrollizine.
(§2) In both the MX-1 and LOX model, results were expressed as a percentage of the test animal evaluation (T) compared to that for the control (C) and was reported as %T/C. These values are based on all mice in the test.
In the MX-1 model %T/C was evaluated from an estimate of tumor weight in untreated mice as compared to an estimate of tumor weight in treated mice. In such tumor weight evaluation, a low %T/C indicates effective treatment as the tumors of the treated mice are smaller than tumors of the untreated control mice.
(§3) The data presented comprises findings at optimal dosages of particularly effective compounds of the invention as compared to the control.
For orientation: Xenograft models place foreign cells or tissue in a host animal.

The subject of data set [3] is LOX (amelanotic melanoma) human tumor xenograft. The experiment in a line: LOX human amelanotic melanoma xenograft, survival evaluation. Type of data set: in vivo, human tumor in female athymic (nude) mice. Particulars: single dose. The protocol: as §1, §2
In the LOX model %T/C was evaluated by survival, meaning that the mean survival time of mice of the control group surviving (C) is compared to the mean survival time of mice who survived the test with treatment (T).
as §3

Data set [4] can be described thus: hygroscopicity of the hydrochloride salt (observation). Type of data set: physicochemical. Conditions: crystalline hydrochloride salt. On the procedure: A solution of the 1-n-propyl-2-methylthio-4,5-bis(N-methyl carbonyloxymethyl)imidazole prepared in Example XVI (1.72 g; 5.21 mmol) in anhydrous dichloromethane (50 mL) was stirred at 0°-5° C. while anhydrous hydrogen chloride gas was bubbled into the solution for 5 minutes through a gas dispersion tube. […] The residue was dried in vacuo for 10 minutes and dissolved in anhydrous dichloromethane (40 mL). The solution was reduced in volume to 10 mL to induce crystallization. Once crystallization had begun, methylene chloride (20 mL) was added and the cold (0° C.) solution was triturated for 10 minutes.

The mark [5] stands for this setting: Mus musculus, P388, 120 h, read-out: % T/C (mean survival time).
[6] abbreviates: optimal dosage 115 mg/kg, hydrochloride salt.
Where [7] appears, read: optimal dosage 200 mg/kg, free base.
Setting [8] is: optimal dosage 100 mg/kg, free base, listed as H (Free base).
Setting [9] is: optimal dosage 240 mg/kg, hydrochloride salt.

“And” between values parts separate entries of the source, which are not always exact repeats. Equal entries are not always repeated.

Turning to `CNC(=O)OCc1nc(SC)n(C)c1COC(=O)NC` [H, 1-methyl-2-methylthio-4,5-bis-(N-methylcarbonyloxymethyl)imidazole], in data set [1] (6.25 mg/kg/inj), the “BWD (body weight difference vs control)” value is -0.7 g, the “KE (log tumor cell population end vs before treatment)” value is reported as -0.83 and the “Tox.Day Surv. (survivors/animals tested)” value was 5/6. Besides, in data set [1] (12.5 mg/kg/inj), the “BWD (body weight difference vs control)” value is listed as -1.2 g, the “KE (log tumor cell population end vs before treatment)” value is 1.05 and the “Tox.Day Surv. (survivors/animals tested)” value is 6/6. Moreover, in data set [1] (25 mg/kg/inj), the “BWD (body weight difference vs control)” value is -1.4 g, the “KE (log tumor cell population end vs before treatment)” value is on record as 1.05 and the “Tox.Day Surv. (survivors/animals tested)” value is reported as 6/6. In data set [1] (50 mg/kg/inj), the “BWD (body weight difference vs control)” value was -2.6 g, the “KE (log tumor cell population end vs before treatment)” value is reported as 4.21 and the “Tox.Day Surv. (survivors/animals tested)” value is listed as 6/6. Also, in data set [1] (100 mg/kg/inj), the “BWD (body weight difference vs control)” value is recorded as -4.1 g, the “KE (log tumor cell population end vs before treatment)” value turned out to be 6.75 and the “Tox.Day Surv. (survivors/animals tested)” value was 6/6. Also, in data set [1] (setting [5]), the response vs control in vivo at 6.25 mg/kg came out at 125%, the response vs control in vivo at 12.5 mg/kg came out at 147%, the response vs control in vivo at 25 mg/kg came to 147% and the response vs control in vivo at 50 mg/kg turned out to be 184%. Also, the response vs control in vivo at 100 mg/kg in data set [1] (setting [5]) amounted to 236%. For the same compound, the “MX-1 % T/C wt.” value in data set [2] (optimal dosage 100 mg/kg, free base) is listed as -73%. Besides, the “MX-1 % T/C wt.” value in data set [2] (setting [6]) is -63%. In data set [2] (setting [7]), the “MX-1 % T/C wt.” value is -56% and the “MX-1 Cures” value was 2/6. Moreover, in data set [3] (setting [8]), the “LOX % T/C Survl.” value is 365% and 233%; the “LOX Cures” value was 5/6 and 2/6. For the same compound, in data set [3] (setting [6]), the “LOX % T/C Survl.” value amounted to 234% and the “LOX Cures” value is 2/6.

Regarding `CCCn1c(SC)nc(COC(=O)NC)c1COC(=O)NC` [K, 1-n-propyl-2-methylthio-4,5-bis-(N-methylcarbonyloxymethyl)imidazole], the “MX-1 Cures” value in data set [2] (setting [9]) is 6/6. Besides, in data set [3] (setting [9]), the “LOX % T/C Survl.” value stood at 191% and the “LOX Cures” value was 1/6. Further, in data set [4], the hygroscopicity result is given as “slightly hygroscopic”.
